Test results reported in article PMC12679585, “Design, synthesis, and characterization of novel 5-ethylsulfonyl-indazole-3-carboxamides as dual VEGFR-2 and EGFR inhibitors: apoptotic antiproliferative and immunomodulatory evaluations” (RSC Advances, 2025).
Values joined by “and” are separate entries in the source; they are usually repeats but may differ in a detail not shown here. Equal values may be shown once.

Experiments:
[1] = tested on: HCT-116; assay: Antiproliferative assay (MTT); format: cell-based; conditions: Homo sapiens, HCT-116 colorectal, mean of three experiments ± SD
Text: (§1) The MTT assay[53,54] was employed to evaluate the antiproliferative efficacy of new compounds 8a–l against two human cancer cell lines: MCF-7 (breast) and HCT-116 (colorectal carcinoma). Erlotinib was employed as the benchmark. Check Appendix A for additional experimental information.
(§2) The MTT assay[53,54] was used to evaluate the antiproliferative properties of novel compounds 8a–l against two human cancer cell lines: MCF-7 (breast cancer) and HCT-116 (colorectal carcinoma). Erlotinib was utilized as the reference. […] The provided values represent the means of three experiments ± standard deviation (SD). […]
(§3) of Ham's F-12 medium/ Dulbecco's modified Eagle's medium (DMEM) (1:1) supplemented with 10% foetal calf serum (GIBCO, UK), 2 mM glutamine, insulin (10 μg/mL), hydrocortisone (500 ng/mL) and epidermal growth factor (20 ng/mL). Trypsin ethylenediamine tetra acetic acid (EDTA) was used to passage the cells after every 2-3 days. 96-well flat-bottomed cell culture plates were used to seed the cells at a density of 10^4 cells mL-1. The medium was aspirated from all the wells of culture plates after 24 h followed by the addition of synthesized compounds (in 200 μL medium to yield a final concentration of 0.1% (v/v) dimethyl sulfoxide) into individual wells of the plates.
(§4) Four wells were designated to a single compound. The plates were allowed to incubate at 37°C for 96 h. Afterwards, the medium was aspirated and 3-[4,5-dimethylthiazol-2-yl]-2,5-diphenyltetrazolium bromide (MTT) (0.4 mg/mL) in medium was added to each well and subsequently incubated for 3 h. The medium was aspirated and 150 μL dimethyl sulfoxide (DMSO) was added to each well. The plates were vortexed followed by the measurement of absorbance at 540 nm on a microplate reader. […]
(§5) All cell lines […]
(§6) were obtained from ATCC (American Type Cell Culture). […]
(§7) μM), benzamidine HCl (16 μg/mL), NaCl (10 mM),leupeptin (10 μg/mL) and pepstatin (10 μg/mL) at 0°C for 20 min at pH 7.4, followed by centrifugation for 20 min. To eliminate the nonspecifically bound material, a Ni-NTA super flow packed column was (1 picture or pasted object on this page, not shown here)

[2] = tested on: MCF-7; assay: Antiproliferative assay (MTT); format: cell-based; conditions: Homo sapiens, MCF7, MCF-7 breast, mean of three experiments ± SD
Text: as §1, §2, §3, §4, §5, §6, §7

[3] = tested on: Bax; assay: Apoptotic markers assay: Bax level in HCT-116 cells; format: cell-based, human; conditions: for Bax fold change: relative to untreated control
[4] = tested on: p53; assay: Apoptotic markers assay: p53 level in HCT-116 cells; format: cell-based, human
Text: (§8) Appendix A gives more details.
Apoptosis dysregulation is a hallmark of human cancer, resulting in uncontrolled proliferation, insufficient response to treatments, and the formation of drug-resistant cells.[60] As a result, current anticancer therapies are recognized for their ability to induce apoptosis in cancer cells via both extrinsic and intrinsic routes.[56]
The ability of p53 overexpression to trigger apoptosis may clarify the common inactivation of p53 enzymes by cancer cells during transformation.[63]

[5] = tested on: Caspase-3; assay: Caspase-3 activation assay in HCT-116 cells; format: cell-based, human; conditions: for Caspase-3 fold change: relative to control
Method: as §8
Additionally, activating caspases is essential for both initiating and terminating the apoptotic process.[64] Caspase-3 is an essential enzyme that cleaves several proteins within cells, leading to apoptotic cell death.[65] […]
be read immediately after the Stop Solution is added or within one hour if the microwell strips are stored at 2 - 8°C in the dark. Read the absorbance of each microwell on a spectrophotometer using 450 nm as the primary wavelength.
4.2.5. Caspase-3 activation assay
Allow all reagents to reach room temperature before use. Gently mix all liquid reagents prior to use. Determine the number of 8-well strips needed for the assay. Insert these in the frame(s) for current use. Add 100 μl of the Standard Diluent Buffer to the zero standard wells. Well(s) reserved for chromogen blank should be left empty. Add 100 μl of standards and controls or diluted samples to the appropriate microtiter wells. The sample dilution chosen should be optimized for each experimental system. Tap gently on side of plate to mix. Cover wells with plate cover and incubate for 2 hours at room temperature. Thoroughly aspirate or decant solution from wells and discard the liquid, Wash wells 4 times. Pipette 100 μl of Caspase-3 (Active) Detection Antibody solution into each well except the chromogen blank(s). Tap gently on the side of the plate to mix. Cover plate with plate cover and incubate for 1 hour at room temperature.
Thoroughly aspirate or decant solution from wells and discard the liquid, Wash wells 4 times. Add 100 μl Anti-Rabbit IgG HRP Working Solution to each well except the chromogen blank(s). Prepare the working dilution as described in Preparing IgG HRP.
Cover wells with the plate cover and incubate for 30 minutes at room temperature.
Thoroughly aspirate or decant solution from wells and discard the liquid. Wash wells 4 times. Add 100 μl of Stabilized Chromogen to each well. The liquid in the wells will […]
begin to turn blue. […] The
Tap side of plate gently to mix.
Use a curve fitting software to generate […]
for the dilution in step 3.
4.2.6. Caspase-8/9 activation assay
This lysate was diluted in […]

[6] = biological target: VEGFR-2 (Homo sapiens, UniProt P35968); assay: VEGFR-2 inhibitory assay
Method: Prepare all the solutions using autoclaved, deionized water and analytical grade
reagents. Prepare and store all the reagents at room temperature (unless indicated
EDTA, adjust the pH to 8.0 using NaOH solution, add 5 mL ultra-pure water; 1×Kinase
solution (1 M), 1 mL DTT, 50 μL tween-20, 450 mL ultrapure water, adjust pH to 7.5
and constant volume to 500 mL using ultrapure water; 4×Stop solution (40 mM): Mix
0.8 mL of the foregoing EDTA solution, 1 mL 10×Detection Buffer and 8.2 mL ultra-
pure water; 1×Detection Buffer: Mix 1 mL 10×Detection Buffer with 9 mL water;
before use). The assays used an ULight-labeled peptide substrate and a Europium-
W1024-labeled antiphosphotyrosine antibody. The VEGFR-2 was purchased from
Carna Biosciences, Inc. (New York, USA). The 384-well plates were obtained from
PerkinElmer. Compounds were dissolved in DMSO and diluted to 11 concentrations at
2×VEGFR-2 kinase solution (0.5 nM) was added to 384-well plates homogeneous
mixing and pre-reaction at room temperature for 30 min. […]
well plate, The final concentration of DMSO in the mixing system was 4%. […] The plate was read using an Envision plate reader. The inhibition rate (%) = (positive well reading-compound well reading)/(positive well reading-negative well reading)×100. The corresponding IC50 values were calculated using GraphPad Prism 5.0.

[7] = tested on: IL-6; assay: IL-6 level by qRT-PCR in HCT-116 cells; conditions: Homo sapiens, HCT-116, read-out: IL-6 (% inhibition)
Method: The reference molecule was dexamethasone, a drug that uniformly regulates the immune system.
TNF-α and IL6 a determination
determined using of q RT-PCR technique. By using q RTPCR (reference), the amount
treated HCT-116 cells was measured (at the IC50 concentrations). Total RNA was
accordance with the manufacturer's instructions (RNeasy mini kit, Qiagen, Germany).
Following RNA extraction, the Revert Aid First Strand cDNA Synthesis kit (Thermo
Scientific, USA) was used to create cDNA. The Rotor-Gene Q real-time PCR thermal
cycler was used to amplify target cDNA for apoptosis markers and GAPDH [as a
normalization (housekeeping) gene] using one step RT-PCR SYBR® Green kit Master
Mix (Bio-Rad Laboratories, USA). Two microliters of cDNA were combined with one
microliter of forward primer, one microliter of reverse primer, ten microliters of master
mixture, and twenty microliters of nuclease-free water to complete the reaction volume.
Every experiment was carried out three times.
Quantitative Real Time Reverse-Transcriptase PCR (qRT-PCR) primer sequences
TNF-α : R 5'- [sequence] -3'.
IL6 : R 5'- [sequence] -3
GAPDH : R 5’- [sequence]-3’

[8] = tested on: Caspase-8; assay: Caspase-8 activation assay in HCT-116 cells; conditions: for Caspase-8 fold change: relative to control
[9] = tested on: Caspase-9; assay: Caspase-9 activation assay in HCT-116 cells; conditions: for Caspase-9 fold change: relative to control

Sequence of VEGFR-2 (P35968 20-1356): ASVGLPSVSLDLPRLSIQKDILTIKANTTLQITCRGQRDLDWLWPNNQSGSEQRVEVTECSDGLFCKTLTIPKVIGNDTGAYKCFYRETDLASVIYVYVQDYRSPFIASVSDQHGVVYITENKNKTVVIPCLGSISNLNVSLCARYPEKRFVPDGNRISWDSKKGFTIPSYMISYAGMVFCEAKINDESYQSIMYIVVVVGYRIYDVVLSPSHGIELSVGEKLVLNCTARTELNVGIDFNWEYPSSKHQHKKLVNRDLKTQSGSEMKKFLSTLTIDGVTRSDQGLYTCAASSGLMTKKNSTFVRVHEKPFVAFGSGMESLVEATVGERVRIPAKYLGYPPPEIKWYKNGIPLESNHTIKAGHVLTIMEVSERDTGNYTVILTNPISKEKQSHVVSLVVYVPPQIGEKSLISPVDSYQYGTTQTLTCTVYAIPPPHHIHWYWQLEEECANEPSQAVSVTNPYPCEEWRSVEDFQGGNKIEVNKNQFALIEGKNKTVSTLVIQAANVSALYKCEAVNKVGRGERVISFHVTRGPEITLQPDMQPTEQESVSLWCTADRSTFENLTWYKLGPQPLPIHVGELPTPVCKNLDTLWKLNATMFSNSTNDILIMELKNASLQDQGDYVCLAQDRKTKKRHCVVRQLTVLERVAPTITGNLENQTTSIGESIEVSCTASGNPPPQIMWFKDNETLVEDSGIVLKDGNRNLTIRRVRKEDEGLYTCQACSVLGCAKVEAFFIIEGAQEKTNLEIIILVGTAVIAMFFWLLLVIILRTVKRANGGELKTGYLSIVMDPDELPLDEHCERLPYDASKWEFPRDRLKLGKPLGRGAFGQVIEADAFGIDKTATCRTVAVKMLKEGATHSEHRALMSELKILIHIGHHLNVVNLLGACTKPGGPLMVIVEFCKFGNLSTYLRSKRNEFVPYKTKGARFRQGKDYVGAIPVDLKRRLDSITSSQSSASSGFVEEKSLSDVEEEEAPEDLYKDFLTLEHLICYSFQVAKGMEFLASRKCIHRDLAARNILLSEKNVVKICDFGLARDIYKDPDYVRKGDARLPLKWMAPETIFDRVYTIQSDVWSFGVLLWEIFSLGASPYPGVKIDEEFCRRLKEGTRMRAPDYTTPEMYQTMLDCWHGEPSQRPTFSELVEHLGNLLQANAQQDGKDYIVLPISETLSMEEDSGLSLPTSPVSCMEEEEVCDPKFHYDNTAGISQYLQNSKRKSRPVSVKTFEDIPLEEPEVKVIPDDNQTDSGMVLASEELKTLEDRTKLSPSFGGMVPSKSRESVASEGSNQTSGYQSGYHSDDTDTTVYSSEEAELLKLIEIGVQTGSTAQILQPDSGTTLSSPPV

Row | IC50 [1] [nM] | IC50 [2] [nM] | IC50 [6] [nM] | SMILES | Bax level [3] [pg/mL] | Bax fold change [3] [fold] | p53 level [4] [pg/mL] | Caspase-3 Conc. [5] | Caspase-3 fold change [5] [fold] | inhibition at 0.024 µM [7] [%] | Caspase-8 Conc. [8] [ng/mL] | Caspase-8 fold change [8] | Caspase-9 Conc. [9] [ng/mL] | Caspase-9 fold change [9] [fold] | inhibition at 0.023 µM [7] [%]
1 | 24 ± 1 | 28 ± 1 | 16 ± 1 | CCS(=O)(=O)c1ccc2[nH]nc(C(=O)NNC(=O)NC34CC5CC(CC(C5)C3)C4)c2c1 [Compound 8g, 2-(5-(Ethylsulfonyl)-1H-indazole-3-carbonyl)-N-(adamantan-1-yl)hydrazine-1-carboxamide] | 490 ± 2 | 8.20 | 320 ± 2 | 490 ± 3 pg/mL and 490 ± 5 pg/mL | 7.50 | 86 | 1.80 ± 0.10 | 18 fold and 18.00 fold | 21 ± 3 | 21 | 
2 | 23 ± 1 | 25 ± 1 | 12 ± 1 | CCS(=O)(=O)c1ccc2[nH]nc(C(=O)NNC(=O)NC3CCCCCC3)c2c1 [Compound 8h, 2-(5-(Ethylsulfonyl)-1H-indazole-3-carbonyl)-N-(cycloheptyl)hydrazine-1-carboxamide] | 510 ± 3 | 8.50 | 355 ± 2 | 510 ± 4 pg/mL and 510 ± 5 pg/mL | 7.90 |  | 2.15 ± 0.20 | 21 fold and 21.50 fold | 23 ± 1 | 23 | 91
